Laboratory results published in publication PMC12363950 (bioRxiv, 2025).

Molecular target: CRAF (Homo sapiens, UniProt P04049, Y340D/Y341D)

In the case of `CCCS(=O)(=O)Nc1ccc(F)c(C(=O)c2c[nH]c3ncc(Cl)cc23)c1F` [PLX4720], the “X-ray crystal structure, 2.91 Å” value is reported as “The structure reveals clear electron density for both PLX4720 and CH5126766”.
